Converted amounts (≈) assume the structure as drawn. Marks after values point to notes of the source that are not given here.
Key:
Escherichia coli JM101 = assay: MIC, microdilution in culture medium, E. coli; format: cell-based; details: 20 h, 37 °C, average of at least three experiments; for MIC: Escherichia coli, JM101, read-out: MIC, Bacteria, E. coli JM101
[1] = tested on: Staphylococcus aureus BHI; assay: MIC, microdilution in culture medium, S. aureus; format: cell-based; details: 20 h, 37 °C, average of at least three experiments; for MIC: Staphylococcus aureus, read-out: MIC, Bacteria, S. aureus BHI
E. coli JM101 = assay: Minimal bactericidal concentration, E. coli; format: cell-based, Escherichia coli; details: overnight incubation, plating on LB, bacteriostatic if growth at 4 times the MIC; for MBC: Escherichia coli, JM101
Experimental: Once the MIC was known, the samples were prepared as described in the previous section with polyamine concentrations corresponding to the MIC and half, double, and four times its value. After overnight incubation with the microorganisms, 30 μL of a ten-fold dilution of each one was spread in LB (in the case of bacterial strains) or SC-ura (for yeast strains) plates. They were incubated for 20 h at 37 °C (bacteria) or 48 h at 30 °C (yeasts), and the level of growth was determined. […] Experiments were carried out at least three times.

BY4741/YEplac195 = assay: Checkerboard titration synergy, BY4741/YEplac195; format: cell-based, Saccharomyces cerevisiae; details: synergistic when FICI ≤0.5
Experimental: (§1) The combined antimicrobial activity of the test compounds with the antibacterial or antifungal control agents was performed under the same conditions used for the MIC determination and following the procedures described by Carton Herrán, Reis de Sá et al. and Zharkova et al.. For each experiment, 16 samples (4 rows × 4 columns) in a total volume of 0.5 mL were prepared in tubes using an array of combinations between the MIC value and 0 μg/mL of the compound to be tested in each row, and between the MIC value and 0 μg/mL of the reference drug in each column. In this way, a variety of mixtures with different concentrations of them alone or in combination was obtained. Briefly, 0.5 mL of a microorganism culture was added to each one of the samples, and after incubation for 24 h with shaking at the appropriate temperature (37 °C or 30 °C), the tubs were visually inspected, and the OD600 was measured. From this information, the fractional inhibitory concentration index (FICI) was calculated according to the formula FIC index = ([A]/[CMI A]) + ([B]/[CMI B]), where [A] and [B] are respective concentrations of tested polyamine and reference drug in their combination effectively inhibiting the growth of bacteria or yeast, and [MIC A] and [MIC B] are the individual MICs of the tested polyamine and reference drug when they are used alone. An interaction is considered synergistic when the FICI value is ≤0.5 [41, 42].
(§2) To confirm the data obtained in the checkerboard assay, 30 μL of a ten-fold dilution of the tubes containing concentrations of half of the MIC of each one of the compounds alone (polyamine to be tested and reference drug) and one fourth of the MIC of each one in combination were also spread in LB or SC-ura plates (according to the microorganism considered in each case) and incubated at 37 °C or 30 °C. The visualisation of these plates was performed after 24 or 48 h, respectively. All these experiments were carried out in triplicate.

[2] = Cytotoxicity, flow cytometry viability assay with propidium iodide; format: cell-based, human; details: human, Jurkat cells (human lymphocytic leukaemia, ATCC TIB-152), 24 h treatment, average of three experiments, read-out: IC50, cytotoxicity on the human Jurkat cell line
Experimental: The cytotoxicity of the compounds was assessed via flow cytometry with a viability assay using propidium iodide (PI), a DNA-binding fluorescent probe not permeant to live cells, which is commonly used to detect dead cells in a population. The human lymphocytic leukaemia Jurkat cell line (ATCC TIB-152) was obtained from the American Type Cell Culture (Sigma-Aldrich) and grown in suspension in an RPMI 1640 medium (Thermo Fisher Scientific, Waltham, MA, USA) supplemented with L-glutamine, antibiotics, and 10% heat-inactivated foetal calf serum (FCS, Thermo Fisher Scientific, Waltham, MA, USA). For the viability assay, cells were seeded in plastic 96-well plates at […] in an RPMI 1640 medium supplemented with 5% FCS. The cells were treated for 24 h with a range of concentrations of the test compounds or with the same volume of phosphate buffer (PBS) in control wells. After incubation, cell suspensions were washed, resuspended in 400 μL fresh medium, and incubated for 5 min at room temperature in the dark with 3.75 μM PI (Sigma-Aldrich). Cell viability was determined via flow cytometry using a Gallios flow cytometer (Beckman Coulter). PI fluorescence was excited with an argon-ion laser at 488 nm and collected through a 620/630 nm band-pass emission. Cellular events were discriminated from debris using forward scatter (FS) and side scatter (SS) signals. Cell aggregates were excluded from analysis based on FS-integral and FS-peak. The gates applied for population discrimination were set manually based on control samples. For each sample, 10,000 events were collected. For further analysis, the cytometric data were exported to Kaluza 2.1 software (Beckman Coulter, Brea, CA, USA). Dead cells were identified and quantified as PI-positive events. The cytotoxic potency of test compounds was quantified using their IC50 values, i.e., the compound concentration at which cell viability is inhibited by 50%, as calculated via curve fitting and determined with the correlation coefficient (R2) using GraphPad Prism 9.0 software. Experiments were carried out in triplicate.

E. coli = assay: Checkerboard titration synergy, E. coli; format: cell-based, Escherichia coli; details: synergistic when FICI ≤0.5
Experimental: as §1, §2

Compound	MIC (Escherichia coli JM101) [µg/mL]	MIC [1] [µg/mL]	MBC (E. coli JM101) [µg/mL]	Synergy with Amphotericin B (BY4741/YEplac195)	Synergy with Cycloheximide (BY4741/YEplac195)	Synergy with Fluconazole (BY4741/YEplac195)	IC50 at 24 h [2] [µg/mL]	Synergy with Ampicillin (E. coli)	Synergy with Ciprofloxacin (E. coli)	Synergy with Doxycycline (E. coli)	Synergy with Gentamicin (E. coli)	Minimal bactericidal concentration (MBC), E. coli JM101 (E. coli JM101)	MIC, Bacteria, E. coli JM101 (Escherichia coli JM101) [µg/mL]	MIC, Bacteria, S. aureus BHI [1] [µg/mL]
c1cc2nc(c1)CNCCN(CCNCc1ccc3c(c1)OCO3)CCNC2 [Compound 5a, 2-(3,6,9-triaza-1(2,6)-pyridinacyclodecaphane-6-yl)-N-(benzo[d][1,3]dioxol-5-ylmethyl)ethan-1-amine]	5	35	10 (≈ 26.1 µM)	positive results and +	Sinergy and positive results and +	Sinergy and synergic and +	37.8 (≈ 98.7 µM)							
Oc1ccccc1CNCCN1CCNCc2cccc(n2)CNCC1 [Compound 6a]	2.5	40	10 (≈ 28.1 µM)	positive results and +	positive results and +	-	98 (≈ 276 µM)	no synergy and -	no synergy and -	no synergy and -	no synergy and -			
Oc1ccc(CNCCN2CCNCc3cccc(n3)CNCC2)cc1 [Compound 7a]	13	135					951 (≈ 2670 µM)	-	-	-	positive results and +	Bacteriostatic		
c1cc2nc(c1)CNCCN(CCNCc1ccc3c(c1)CCO3)CCNC2 [Compound 8a, 2-(3,6,9-triaza-1(2,6)-pyridinacyclodecaphane-6-yl)-N-((2,3-dihydrobenzofuran-5-yl)methyl)ethan-1-amine]	15	100	60 (≈ 157 µM)				128 (≈ 335 µM)	positive results and +	-	positive results and +	positive results and +			
N^1-(benzo[d][1,3]dioxol-5-ylmethyl)-N^3-(2-((2-((3-((benzo[d][1,3]dioxol-5-ylmethyl)amino)propyl)amino)ethyl)(2-((3-(((2,3-dihydrobenzofuran-6-yl)methyl)amino)propyl)amino)ethyl)amino)ethyl)propane-1,3-diamine [Compound 4a]				positive results and +	Sinergy and positive results and +	Sinergy and synergic and +						10 ^a µg/mL	5	4

Source: PMC10675077, “Antimicrobial Properties of New Polyamines Conjugated with Oxygen-Containing Aromatic Functional Groups” (Molecules, 2023)
